Assay results published in a melting point compilation (Tetko et al.; mined from patent text by program, amines drawn as free bases though some values may be those of a salt).

Structure (SMILES)	melting point
CON1C(=O)[C@@H](NC(=O)OC(C)(C)C)[C@@H]1C1CCCCC1 (relative stereo)	110 to 112 °C
Nc1ccc2[nH]c3ccc([N+](=O)[O-])cc3c(=O)c2c1	> 350 °C
CC(=O)Nc1cccc2c1S(=O)(=O)C(C)C2 (stereo not drawn)	115 to 117 °C
CCOC1CN(Cc2cc(OC)c(OC)c(OC)c2)Cc2cc(OC)c(O)cc21 (stereo not drawn)	94 to 96 °C
COC12CC(C)(C)C(O)C(C=C1C)O2 (stereo not drawn)	82.5 to 83.5 °C
CCn1cc2c(C3CC3CNC(C)=O)cccc2n1 (stereo not drawn)	155 to 159 °C
CCOC(=O)C(=CNC1CC1)C(=O)c1cc(F)c(F)cc1Cl	55 to 58 °C
OC(CCN1CCC(c2ccc(F)cc2)CC1)c1ccc(Cl)cc1 (stereo not drawn)	108 to 110 °C
c1ccc2c(c1)c(N1CCOCC1)nc1c(-c3nc(C4CC4)no3)ncn12	189 to 191 °C
Clc1cc2c(oc3c(Cl)c(Br)c(Cl)c(Br)c32)c(Br)c1Br	288 to 290 °C
CC(C)(C)C(=O)C(=CC1CCCCC1)n1cncn1	98 °C
CCC1(O)CC(=O)OCc2c1cc1n(c2=O)Cc2c-1nc1ccccc1c2-c1ccc(C)cc1 (stereo not drawn)	> 280 °C
CCCCC1(O)C2=NCC3(CCCCC3)CN2c2ccccc21 (stereo not drawn)	192 to 195 °C
CCOc1nn(-c2ccc(C(F)(F)F)cn2)cc1CCCOc1cccc(CC(=O)O)c1F	120 to 121 °C
COC(=O)NC=Cc1ccc(OCC(O)CNC(C)C)cc1 (stereo not drawn)	128 to 129 °C
COc1cc2c(c(C)c1C)C(=O)CC2c1c[nH]cn1 (stereo not drawn)	258 to 261 °C
CN1C(=N)CN(c2ccccc2)C1=O	156 to 158 °C
OC(Cc1ccccc1Cl)(Cn1cncn1)C1(Cl)CC1 (stereo not drawn)	107 °C

The remaining lines, values ahead:

melting point	Structure (SMILES)
58.5 to 60.1 °C	CCCCC1CCC(c2ccc(Cc3ccc(N)cc3)cc2)(c2ccc(Cc3ccc(N)cc3)cc2)CC1
168 °C	Cc1cc(N)cc(C)c1C(=O)Cc1ccccc1C(F)(F)F
151 to 155 °C	Cc1cc(N2CCC(CC(=O)N3CCN(Cc4ccccc4)CC3)CC2)ccc1Oc1ccc(NS(=O)(=O)c2ccc(Cl)c(Cl)c2)cn1
135 to 136 °C	COC(=O)Cc1oc2ccc(Cl)cc2c1-c1ccccc1C
188 to 190 °C	COc1cc(OC)nc(Oc2cccc3cc(C)oc(=O)c23)n1
116 °C	COc1cc(OCc2ccc(C(=O)N(C)C3CCCCC3)cc2)cc(OC)c1OC
143 to 144 °C	Cc1cc(-c2c(Cl)ccc(C(=O)c3cnn(C)c3O)c2Cl)on1
142 to 143 °C	COc1nc2ccccc2cc1N(C)C(=O)N1CCN(c2cc(C)cc(C)c2)CC1
153 to 159 °C	Cc1nc(-c2ccc(C#N)cc2)sc1C(=O)N(CC(=O)O)[C@H](C)[C@](O)(Cn1cncn1)c1ccc(F)cc1F
246 to 253 °C	COc1ccc(-n2c(-c3ccccn3)nc(SC)c(C#N)c2=O)cc1
133 to 135 °C	CCCCCC(=O)OC(C)c1ccc(-c2ccc(C(=O)O)cc2)cc1 (single isomer, unassigned; (+))
236 to 238 °C	O=C(O)Cc1c(C(=O)O)c2cc(Oc3ccc(C(F)(F)F)cc3)ccc2n1-c1cccc(Cl)c1
186 to 188 °C	COc1ccc(C2(c3ccc(O)c(C)c3)c3ccccc3-c3ccccc32)cc1
168 to 170 °C	CCCCCOc1cc(C(=O)O)cc(N)c1C(=O)c1ccccc1
147 to 149 °C	O=C(CCCCCCOc1ccc(-c2ccccc2)cc1)NO
177 °C	COC(=O)c1ccc(C#Cc2cc(C#Cc3ccc(C(=O)OC)cc3)cc(C#Cc3ccc(C(=O)OC)cc3)c2)cc1
145 to 147 °C	C#CCOc1nc(N)nc(-c2ccccc2)c1-c1ccc(=O)n(C(C)C)n1
128 to 132 °C	CN(C)C(=O)OCCOc1ccc(CC(NC(=O)OC(C)(C)C)C(O)CNCC(O)C(Cc2ccccc2)NC(=O)O)cc1 (stereo not drawn)
172 to 173 °C	Cn1c(-c2ccccc2)c(C=O)c2ccc(Cl)cc2c1=O
147 to 149 °C	Oc1nc(Cl)n(-c2ccccc2)n1
